Data as given in US9050295B2, “Composition for treatment of tuberculosis” (ETH Zurich, priority 2007, dated 2015).

Molecular target: EthR-VP16 binding to PethR (Mycobacterium bovis, UniProt Q7TVI1)
Assay type: cell-based, E. coli BL21(DE3)

EthR-VP16 binding to PethR, sequence (Q7TVI1 whole entry, looked up): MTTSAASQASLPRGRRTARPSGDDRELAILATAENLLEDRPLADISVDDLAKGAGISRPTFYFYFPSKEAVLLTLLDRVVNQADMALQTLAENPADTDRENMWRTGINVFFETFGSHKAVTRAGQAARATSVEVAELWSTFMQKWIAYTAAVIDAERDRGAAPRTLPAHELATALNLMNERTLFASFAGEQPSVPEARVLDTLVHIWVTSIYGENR

With `CCCC(=O)OCCc1ccccc1` [2-Phenylethyl butyrate] the “green fluorescence (EthR-controlled GFP expression)” value was “adjustable green fluorescence”.
